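96-well plates; 48 h exposure; 5 concentrations. Endpoints by linear interpolation between flanking doses. Not reached: highest tested concentration assigned. GI50 marks 50% less growth. TGI: total growth inhibition.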
Key:
Experiment in all cases: NCI tumour cell line growth inhibition, 48 h
OVCAR-4 ovarian = test system: OVCAR-4 ovarian
OVCAR-3 ovarian = test system: OVCAR-3 ovarian
NCI-H23 lung = test system: NCI-H23 lung
LOX IMVI melanoma = test system: LOX IMVI melanoma
ACHN renal = test system: ACHN renal
NCI-H226 lung = test system: NCI-H226 lung
SF-268 CNS = test system: SF-268 CNS
UO-31 renal = test system: UO-31 renal
EKVX NSCLC = test system: EKVX NSCLC
SK-MEL-28 melanoma = test system: SK-MEL-28 melanoma
HL-60(TB) leukemia = test system: HL-60(TB) leukemia
KM12 colon = test system: KM12 colon
M14 melanoma = test system: M14 melanoma
786-0 renal = test system: 786-0 renal
PC-3 prostate = test system: PC-3 prostate
SK-OV-3 ovarian = test system: SK-OV-3 ovarian
HT29 colon = test system: HT29 colon
NCI-H460 lung = test system: NCI-H460 lung
T-47D breast = test system: T-47D breast
SK-MEL-5 melanoma = test system: SK-MEL-5 melanoma
MALME-3M melanoma = test system: MALME-3M melanoma
SW-620 colon = test system: SW-620 colon
SK-MEL-2 melanoma = test system: SK-MEL-2 melanoma
HCT-15 colon = test system: HCT-15 colon
UACC-257 melanoma = test system: UACC-257 melanoma
K-562 leukemia = test system: K-562 leukemia
HOP-92 NSCLC = test system: HOP-92 NSCLC
SR leukemia = test system: SR leukemia
MDA-MB-231 breast = test system: MDA-MB-231 breast
OVCAR-8 ovarian = test system: OVCAR-8 ovarian
U251 CNS = test system: U251 CNS
BT-549 breast = test system: BT-549 breast
SN12C renal = test system: SN12C renal
OVCAR-5 ovarian = test system: OVCAR-5 ovarian
MDA-MB-435 = test system: MDA-MB-435
UACC-62 melanoma = test system: UACC-62 melanoma
NCI-H522 lung = test system: NCI-H522 lung
HCC-2998 colon = test system: HCC-2998 colon
SF-295 CNS = test system: SF-295 CNS
MDA-MB-468 breast = test system: MDA-MB-468 breast
IGROV1 ovarian = test system: IGROV1 ovarian
TK-10 renal = test system: TK-10 renal
COLO 205 colon = test system: COLO 205 colon
MOLT-4 leukemia = test system: MOLT-4 leukemia
MCF7 breast = test system: MCF7 breast
A498 renal = test system: A498 renal
SNB-19 CNS = test system: SNB-19 CNS
A549 NSCLC = test system: A549 NSCLC
SF-539 CNS = test system: SF-539 CNS
CAKI-1 renal = test system: CAKI-1 renal
HCT-116 colon = test system: HCT-116 colon
CCRF-CEM leukemia = test system: CCRF-CEM leukemia
HOP-62 NSCLC = test system: HOP-62 NSCLC
DU-145 prostate = test system: DU-145 prostate
HS 578T breast = test system: HS 578T breast
RXF 393 renal = test system: RXF 393 renal

Compound: CN(C)c1nc(NCCNS(=O)(=O)c2ccc(C(=O)/C=C/c3ccc(Cl)cc3)cc2)nc(N2CCOCC2)n1
- GI50 (OVCAR-4 ovarian): 14.7 µM
- TGI (OVCAR-4 ovarian): 29 µM
- GI50 (OVCAR-3 ovarian): 17.9 µM
- TGI (OVCAR-3 ovarian): 35.5 µM
- GI50 (NCI-H23 lung): 15.7 µM
- TGI (NCI-H23 lung): 29.5 µM
- GI50 (LOX IMVI melanoma): 1.71 µM
- TGI (LOX IMVI melanoma): 3.24 µM
- GI50 (ACHN renal): 13.5 µM
- TGI (ACHN renal): 26.3 µM
- GI50 (NCI-H226 lung): 15.7 µM
- TGI (NCI-H226 lung): 34 µM
- GI50 (SF-268 CNS): 17.7 µM
- TGI (SF-268 CNS): 43.8 µM
- GI50 (UO-31 renal): 11.4 µM
- TGI (UO-31 renal): 23.5 µM
- GI50 (EKVX NSCLC): 14.8 µM
- TGI (EKVX NSCLC): 28.7 µM
- GI50 (SK-MEL-28 melanoma): 15.5 µM
- TGI (SK-MEL-28 melanoma): 28.9 µM
- GI50 (HL-60(TB) leukemia): 14.7 µM
- TGI (HL-60(TB) leukemia): 95.1 µM
- GI50 (KM12 colon): 16.9 µM
- TGI (KM12 colon): 41.4 µM
- GI50 (M14 melanoma): 14.1 µM
- TGI (M14 melanoma): 28.3 µM
- GI50 (786-0 renal): 14.8 µM
- TGI (786-0 renal): 28.8 µM
- GI50 (PC-3 prostate): 13 µM
- TGI (PC-3 prostate): 29.6 µM
- GI50 (SK-OV-3 ovarian): 15.3 µM
- TGI (SK-OV-3 ovarian): 30.2 µM
- GI50 (HT29 colon): 3.21 µM
- TGI (HT29 colon): 10.4 µM
- GI50 (NCI-H460 lung): 16.8 µM
- TGI (NCI-H460 lung): 33.6 µM
- GI50 (T-47D breast): 16.7 µM
- TGI (T-47D breast): 42.2 µM
- GI50 (SK-MEL-5 melanoma): 16.3 µM
- TGI (SK-MEL-5 melanoma): 30.1 µM
- GI50 (MALME-3M melanoma): 15.1 µM
- TGI (MALME-3M melanoma): 28.6 µM
- GI50 (SW-620 colon): 8.46 µM
- TGI (SW-620 colon): 21.7 µM
- GI50 (SK-MEL-2 melanoma): 16.6 µM
- TGI (SK-MEL-2 melanoma): 30.4 µM
- GI50 (HCT-15 colon): 2.07 µM
- TGI (HCT-15 colon): 4.54 µM
- GI50 (UACC-257 melanoma): 16.2 µM
- TGI (UACC-257 melanoma): 30 µM
- GI50 (K-562 leukemia): 3.71 µM
- TGI (K-562 leukemia): > 100 µM
- GI50 (HOP-92 NSCLC): 15.1 µM
- TGI (HOP-92 NSCLC): 32 µM
- GI50 (SR leukemia): 2.52 µM
- TGI (SR leukemia): > 100 µM
- GI50 (MDA-MB-231 breast): 13.3 µM
- TGI (MDA-MB-231 breast): 26.5 µM
- GI50 (OVCAR-8 ovarian): 14.8 µM
- TGI (OVCAR-8 ovarian): 28.4 µM
- GI50 (U251 CNS): 8.17 µM
- TGI (U251 CNS): 20.7 µM
- GI50 (BT-549 breast): 15.3 µM
- TGI (BT-549 breast): 29.3 µM
- GI50 (SN12C renal): 14.4 µM
- TGI (SN12C renal): 27.8 µM
- GI50 (OVCAR-5 ovarian): 15 µM
- TGI (OVCAR-5 ovarian): 28.4 µM
- GI50 (MDA-MB-435): 12.8 µM
- TGI (MDA-MB-435): 26.6 µM
- GI50 (UACC-62 melanoma): 11.4 µM
- TGI (UACC-62 melanoma): 23.7 µM
- GI50 (NCI-H522 lung): 14 µM
- TGI (NCI-H522 lung): 27.3 µM
- GI50 (HCC-2998 colon): 16.7 µM
- TGI (HCC-2998 colon): 30.8 µM
- GI50 (SF-295 CNS): 13.3 µM
- TGI (SF-295 CNS): 26.4 µM
- GI50 (MDA-MB-468 breast): 11 µM
- TGI (MDA-MB-468 breast): 24.9 µM
- GI50 (IGROV1 ovarian): 3.08 µM
- TGI (IGROV1 ovarian): 11 µM
- GI50 (TK-10 renal): 15.8 µM
- TGI (TK-10 renal): 29.4 µM
- GI50 (COLO 205 colon): 16.7 µM
- TGI (COLO 205 colon): 34.3 µM
- GI50 (MOLT-4 leukemia): 3.38 µM
- TGI (MOLT-4 leukemia): 80.3 µM
- GI50 (MCF7 breast): 2.37 µM
- TGI (MCF7 breast): 6.39 µM
- GI50 (A498 renal): 12.4 µM
- TGI (A498 renal): 25.1 µM
- GI50 (SNB-19 CNS): 14.2 µM
- TGI (SNB-19 CNS): 27.2 µM
- GI50 (A549 NSCLC): 14.4 µM
- TGI (A549 NSCLC): 28.5 µM
- GI50 (SF-539 CNS): 14.7 µM
- TGI (SF-539 CNS): 27.9 µM
- GI50 (CAKI-1 renal): 11.2 µM
- TGI (CAKI-1 renal): 24.7 µM
- GI50 (HCT-116 colon): 11.7 µM
- TGI (HCT-116 colon): 24.3 µM
- GI50 (CCRF-CEM leukemia): 6.86 µM
- TGI (CCRF-CEM leukemia): > 100 µM
- GI50 (HOP-62 NSCLC): 17.5 µM
- TGI (HOP-62 NSCLC): 34 µM
- GI50 (DU-145 prostate): 17.2 µM
- TGI (DU-145 prostate): 34 µM
- GI50 (HS 578T breast): 15.8 µM
- TGI (HS 578T breast): 60.5 µM
- GI50 (RXF 393 renal): 12.8 µM
- TGI (RXF 393 renal): 27 µM
